Experimental data: US6943191B1, “Disubstituted lavendustin A analogs and pharmaceutical composition comprising the analogs” (The United States of America as represented by the …, priority 1998, dated 2005)
Read-outs that look alike come from different tables or passages of the source.

Experiments:
p210^bcr-abl = target: T1, p210^bcr-abl (Homo sapiens, UniProt P00519); test: Inhibition of in vitro auto-phosphorylation of p210^bcr-abl, immune-complex kinase assay; assay type: biochemical; conditions: immune complex kinase assay, 3 experiments, read-out: Enzyme Assays IC50 (μM) p210bcl-abl in vitro phosphorylation
T1 construct: immune complexes containing ^32P-labeled p210^bcr-abl were collected on protein Sepharose beads; BCR (N-terminal part of the breakpoint cluster region protein, natural fusion partner); endogenous in cells; host or cells: K562 cells (lysate, immunoprecipitated on Protein A-Sepharose); the other entry of the earlier key: BCR (P11274, Breakpoint cluster region protein)
Method: Inhibition of in vitro auto-phosphorylation of p210^bcr-abl in immune-complex kinase assays were conducted as follows. K562 cell line cells were washed twice in […]. The washed cells were lysed in PLC lysis buffer 150 mM HEPES (pH 7.5), 150 mM NaCl, 10% (v/v) glycerol, 1% (v/v) Triton X-100, 1.5 mM MgCl2, 1 mM EGTA. 10 μg/ml leupeptin, 10 μg/ml aprotinin, 1 mM sodium orthovanadate. 10 mM sodium pyrophosphate, 100 mM sodium fluoride and 1 mM phenylmethyl sulfonyl fluoride| Cell lysates were centrifuged at 100,000 g for 15 minutes and the supernatant collected. Protein concentrations of the clarified supernatants were determined by the Bradford Protein Assay, and the same quantity of protein was immunoprecipitated from control (vehicle-treated) and drug-treated cells. Cell lysates were incubated and gently rocked at 4° C. for 4 hours overnight with antibodies. Immune complexes were collected by incubation with Protein A-Sepharose beads (Pharmacia, Piscataway N.J.) and immune complexes (beads) were washed three times with HNTG buffer [20 mM HEPES (pH 7.5), 10% glycerol, 0.1% Triton X-100, 150 mM NaCl and 1 mM sodium orthovanadate] to remove unbound material. Bound proteins were boiled for 5 minutes in 2×SDS sample buffer (63 mM Tris-HCl, ph 6.8; 10% glycerol; 2% SDS; 0.0025% bromophenol blue: and […] 2 mercaptoethanol) prior to SDS-PAGE. Proteins were resolved on 4-20% gradient mini gels from Novex Experimental Technology (San Diego, Calif.).
After SDS-PAGE, proteins were electrophoretically transferred onto Immobilon polyvinylidene difluoride (PVDF) membranes (Millipore, Bedford, Mass.) at 250 mA for 4 hours at 4° C. using 2× Tris glycine transfer buffer (50 mM Tris, glycine), 20% methanol and 0.1% SDS. Residual binding sites on the membrane were blocked by incubation in TTS (20 mM Tris pH 7.4, 0.9% NaCl and 0.05% Tween 20) containing 3% BSA overnight at 4° C. or for 4 hours at room temperature. Blots were incubated for 1-1.5 hours with TTS containing 0.3% BSA with 1 μg/ml of mouse anti-P-Tyr, 2 μg/ml of mouse anti-Grb2 or 1 μg/ml of rabbit anti-She antibody. Blots were washed three times for 6 minutes each with TTS containing 0.3% BSA and probed with a 1:1000 dilution of rabbit anti-mouse antibody or directly with [^125I]Protein A (Amersham, Arlington Heights, Ill.) in blocking solutions. Proteins were visualized by autoradiography (exposed for 1-2 days at −70° C.).
The p210^bcr-abl, protein immunoprecipitates were washed twice with HTNG buffer Immunoprecipitates were washed once with 50 mM Tris (pH 7.0) and distributed to each reaction in 20 μl of 20 mM PIPES [piperazine-N,N′-bis(ethanesulfonic acid)] (pH 7.0)−20 mM MnCl2. Then, 10 μl of compounds made according to the present invention at desired concentrations from working stock solution prepared in 20 mM PIPEs (pH 7.0)−20 mM MnCl2 were added to each reaction tube. Reactions were initiated with the addition of 10 μl of [γ-^33P]ATP (10 μCi per sample, 3000 Ci/mmol; Amersham), incubated for 20 minutes at 30° C., stopped by addition of 10 μl of 5×SDS sample buffer, heated at 100° C. for 5 minutes, and analyzed on 4-20% SDS-PAGE and by autoradiography.
To assess the effect of drugs added in vitro on the state of p210^bcr-abl in the immune complexes, K562 cells were labeled with ^32P, lysed in PLC buffer and immune complexes containing ^32P-labeled p210^bcr-abl were collected on protein Sepharose beads and beads were washed four times with HNTG buffer. Immune complexes were divided into several tubes in 30 μl of PLC buffer in the presence of compounds made as described herein.

[1] = test system: panel of approximately 60 different human tumor cell lines; test: National Cancer Institute drug screen, mean-graph parameters; assay type: cell-based; conditions: mean over cell line panel, two days exposure; for GI50: Homo sapiens, 48 h
Method: Compounds of the present invention also have been subjected to the drug screening procedure employed by the National Cancer Institute for the screening of drugs having possible anticancer utility. The screening procedure uses a diverse, disease-oriented panel consisting of approximately 60 different human tumor cell lines organized into disease-specific subpanels. The compounds of the present invention were tested over a range of concentrations for cytotoxic or growth-inhibitory effects against cell lines comprising the panel. The eight subpanels represented diverse histologies (leukemias, melanomas, and tumors of the lung, colon, kidney, breast, ovary, and brain).
Compounds of the present invention were tested over a period of two days. During this period the cells were continuously exposed to various concentrations of the compounds tested. The tests produced individual dose-responses, one for each cell line (i.e. one for each example), and the data were represented in dose-response curves. The data provided by these dose response curves were summarized using a mean-graph format.
To produce data for the mean-graph format, a compound concentration that produced a target level response was calculated for each cell line. Three different response parameters were evaluated. The first response parameter was the growth inhibition (“GI50”). GI50 is the concentration of compounds made according to the present invention that produced an apparent 50% decrease in the number of tumor cells relative to the appropriate control (not exposed to the compounds of the present invention) at the end of the incubation period.
The second response parameter was the total growth inhibition (“TGI”). TGI is the concentration at which the number of tumor cells remaining at the end of the incubation period substantially equal the number of tumor cells existing at the start of the incubation period.
The third response parameter was the lethal concentration (“LC50”) LC50 is the concentration of compounds made according to the present invention that caused an apparent 50 percent reduction in the number of tumor cells […] at the start of the incubation period.
In a typical GI50 mean graph, the relative position of the vertical reference line along the horizontal concentration axis was obtained by averaging the negative log10GI50 values for all the cell lines tested against the compound. Horizontal bars were then plotted for the individual negative log10GI50 values of each cell line relative to the vertical reference line. The GI50 graph thus provided a characteristic fingerprint for the compound, displaying the individual cell lines that are proportionately more sensitive than average (bars extending to the right of the reference line) or proportionately less sensitive than average (bars extending to the left of the reference line). The length of a bar was proportional to the difference between the log10GI50 value obtained with the particular cell line and the mean (represented by the vertical reference line).
Similar mean graphs were prepared for the TGI and LC50 response parameters.

K562 cells = test: K562 cell culture and growth assay, 6 day MTT; assay type: cell-based, human; conditions: Homo sapiens, 144 h, K562, 6 days, 4 or more experiments
Method: This example describes the procedure used for cell culture and growth assays. Human leukemia, Philadelphia-chromosome-positive CML cell line K562 was obtained from ATCC (Rockville, Md.). Cells were cultured in RPMI medium containing 10% fetal calf serum, 2 mM glutamine, 100 units/ml of penicillin and 100 μg/ml streptomycin Cells (2×10^3 cells/well) were incubated with increasing concentrations of compounds of the present invention dissolved in DMSO in a final volume of 200 μl in 96-well plates. Control cells were incubated with medium containing identical concentrations of the DMSO solvent. Growth of K562 cells was quantitated after 6 days by ability of living cells to reduce the yellow dye 3-(4,5-dimethylthiazolyl)-2,5-diphenyltetrazolium bromide (MTT) to a blue formazan product. Further information concerning this procedure is provided by Mossman T., “Rapid Colorimetric Assay for Cellular Growth and Survival—Application to Proliferation and Cytotoxicity Assays,” J. Immunol. Methods 1983, 65:55-63, which is incorporated herein by reference.

[2] = Table 8, mean+S.E., read-out: IC50 (μM) 6 dMTT
[3] = Table 10, read-out: Tumor Cell Mean log GI50 (converted)
[4] = Table 10, mean ± S.E., read-out: IC50 (μM) 6dMTT
[5] = Table 9, read-out: Tumor cell Mean log GI50 (converted)
[6] = Table 9, mean ± S.E., read-out: IC50 (μM) 6dMTT

T1 sequence (P00519 with tags, fused parts or gaps): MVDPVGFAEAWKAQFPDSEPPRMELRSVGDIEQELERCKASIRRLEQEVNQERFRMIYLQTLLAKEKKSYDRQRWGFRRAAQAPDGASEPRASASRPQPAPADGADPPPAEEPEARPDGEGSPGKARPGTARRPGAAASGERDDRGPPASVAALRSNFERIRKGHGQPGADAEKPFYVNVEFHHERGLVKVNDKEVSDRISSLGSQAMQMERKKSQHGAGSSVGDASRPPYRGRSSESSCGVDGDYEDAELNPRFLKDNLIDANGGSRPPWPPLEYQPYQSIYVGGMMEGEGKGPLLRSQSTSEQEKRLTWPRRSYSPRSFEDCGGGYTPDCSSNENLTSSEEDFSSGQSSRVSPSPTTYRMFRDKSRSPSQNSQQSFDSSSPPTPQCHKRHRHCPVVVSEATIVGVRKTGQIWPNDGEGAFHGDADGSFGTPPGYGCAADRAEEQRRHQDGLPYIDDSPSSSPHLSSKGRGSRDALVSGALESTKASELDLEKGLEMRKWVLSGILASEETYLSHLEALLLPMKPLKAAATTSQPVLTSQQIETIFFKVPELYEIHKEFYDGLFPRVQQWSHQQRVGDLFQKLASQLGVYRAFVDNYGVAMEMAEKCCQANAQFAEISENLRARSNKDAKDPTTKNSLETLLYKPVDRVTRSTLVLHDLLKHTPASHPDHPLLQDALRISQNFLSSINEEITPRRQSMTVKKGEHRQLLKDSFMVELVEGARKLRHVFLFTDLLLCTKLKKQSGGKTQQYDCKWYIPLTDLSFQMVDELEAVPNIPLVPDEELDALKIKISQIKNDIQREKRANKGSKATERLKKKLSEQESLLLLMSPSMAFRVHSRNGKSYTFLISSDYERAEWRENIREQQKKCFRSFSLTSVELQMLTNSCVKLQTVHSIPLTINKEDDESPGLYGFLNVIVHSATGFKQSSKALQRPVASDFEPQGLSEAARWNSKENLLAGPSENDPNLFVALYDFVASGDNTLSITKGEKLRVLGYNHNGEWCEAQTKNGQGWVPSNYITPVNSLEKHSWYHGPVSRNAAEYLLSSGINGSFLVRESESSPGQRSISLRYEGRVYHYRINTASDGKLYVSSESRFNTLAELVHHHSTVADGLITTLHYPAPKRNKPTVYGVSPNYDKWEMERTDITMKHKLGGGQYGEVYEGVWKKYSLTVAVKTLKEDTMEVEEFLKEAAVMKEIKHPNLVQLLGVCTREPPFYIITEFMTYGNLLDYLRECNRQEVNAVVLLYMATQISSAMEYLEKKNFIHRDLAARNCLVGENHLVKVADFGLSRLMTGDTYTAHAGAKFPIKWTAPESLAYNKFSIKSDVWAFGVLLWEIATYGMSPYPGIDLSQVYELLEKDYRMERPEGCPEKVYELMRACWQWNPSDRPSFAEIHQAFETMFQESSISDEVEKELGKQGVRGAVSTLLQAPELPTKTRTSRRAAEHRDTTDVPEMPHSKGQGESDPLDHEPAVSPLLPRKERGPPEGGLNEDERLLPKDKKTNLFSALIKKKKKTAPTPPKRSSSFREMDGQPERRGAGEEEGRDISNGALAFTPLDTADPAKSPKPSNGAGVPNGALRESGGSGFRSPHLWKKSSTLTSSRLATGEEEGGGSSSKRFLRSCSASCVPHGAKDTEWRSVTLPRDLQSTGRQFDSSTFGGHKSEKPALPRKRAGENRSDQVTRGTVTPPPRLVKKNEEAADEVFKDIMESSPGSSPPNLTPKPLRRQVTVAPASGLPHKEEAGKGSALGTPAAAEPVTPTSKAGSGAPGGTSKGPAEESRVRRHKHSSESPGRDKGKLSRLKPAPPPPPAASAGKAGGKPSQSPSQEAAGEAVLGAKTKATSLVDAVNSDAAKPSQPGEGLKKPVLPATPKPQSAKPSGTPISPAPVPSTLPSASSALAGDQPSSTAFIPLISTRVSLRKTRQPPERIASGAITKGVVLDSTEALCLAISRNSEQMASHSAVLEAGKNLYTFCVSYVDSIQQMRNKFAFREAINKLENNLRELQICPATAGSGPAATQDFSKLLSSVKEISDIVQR

Q: Which IC50 (p210^bcr-abl; Table 8, mean+S.E.) does the source give for `Oc1ccc(O)c(CNc2ccc(C(O)C(F)(F)F)cc2)c1` (stereo not shown) [CH(OH)CF3 / H / H, 4′-(trifluoromethylethanol)-1′-N-2,5-dihydroxybenzylamine] here?
A: The IC50 was 0.57 µM.

Q: And the “Tumor Cell Mean log GI50” value ([1]; Table 8)?
A: The value was −4.82.

Q: And the “Tumor Cell Mean log TGI” value ([1]; Table 8)?
A: Its value is −4.34.

Q: What about the IC50 (K562 cells; [2]) of the same compound?
A: The IC50 was 14.3 µM.

Q: With `COC(=O)c1ccc(NCc2cc(O)ccc2O)cc1O` [COOCH3 / OH / H] as the compound, how does the IC50 (p210^bcr-abl; Table 8, mean+S.E.) read?
A: The IC50 was 6.44 µM.

Q: And the “Tumor Cell Mean log GI50” value ([1]; Table 8)?
A: The value was −5.23.

Q: What about the “Tumor Cell Mean log TGI” value ([1]; Table 8) of the same compound?
A: The value was −4.70.

Q: What about the IC50 (K562 cells; [2]) of the same compound?
A: Its IC50 is 17.7 µM.

Q: With `CC(C)OC(=O)c1ccc(CCc2cc(O)c(Br)cc2O)cc1` as the compound, how does the IC50 (p210^bcr-abl; Table 10, mean ± S.E.) read?
A: Its IC50 is 5.77 ± 0.53 µM.

Q: What about the GI50 [1, 3] of the same compound?
A: The GI50 was 7.59 µM.

Q: And the “Tumor Cell Mean log TGI” value ([1]; Table 10)?
A: Its value is −4.50.

Q: What about the IC50 (K562 cells; [4]) of the same compound?
A: Its IC50 is 20 ± 0.7 µM.

Q: How did the IC50 (p210^bcr-abl; Table 9, mean ± S.E.) turn out when `CC(C)OC(=O)c1ccc(NCC2=CC(=O)C=CC2=O)cc1Cl` [Compound 26, 3′-chloro-4′-isopropylbenzoate-1′-N-p-quinone-2-methyl amine] was run?
A: Its IC50 is 3.01 ± 1.75 µM.

Q: What about the GI50 [1, 5] of the same compound?
A: Its GI50 is 9.55 µM.

Q: What about the “Tumor Cell Mean log TGI” value ([1]; Table 9) of the same compound?
A: The value was −4.41.

Q: And the IC50 (K562 cells; [6])?
A: Its IC50 is 27.7 ± 0.6 µM.

Q: For `COC(=O)c1ccc(CCc2cc(O)ccc2O)cc1`, which IC50 (p210^bcr-abl; Table 10, mean ± S.E.) is on record?
A: The IC50 was 2.64 ± 0.99 µM.

Q: What about the GI50 [1, 3] of the same compound?
A: Its GI50 is 10 µM.

Q: What about the “Tumor Cell Mean log TGI” value ([1]; Table 10) of the same compound?
A: Its value is −4.43.

Q: And the IC50 (K562 cells; [4])?
A: The IC50 was 18.5 ± 5.62 µM.

Q: How did the IC50 (p210^bcr-abl; Table 8, mean+S.E.) turn out when `O=C(O)c1cc(N(Cc2ccccc2O)Cc2cc(O)ccc2O)ccc1O` [Lavendustin A, 5-[(2,5-dihydroxy-benzyl)-(2-hydroxy-benzyl)-amino]-2-hydroxy-benzoic acid] was run?
A: The IC50 was 41.1 µM.

Q: And the “Tumor Cell Mean log GI50” value ([1]; Table 8)?
A: The value was −4.06.

Q: And the “Tumor Cell Mean log TGI” value ([1]; Table 8)?
A: Its value is −4.00.

Q: And the IC50 (K562 cells; [2])?
A: Its IC50 is 44.7 µM.

Q: For `COC(=O)c1ccc(NCC2=C(Br)C(=O)C=CC2=O)cc1Cl` [Compound 25, 3′-chloro-4′-methylbenzoate-1′-N-2-bromo-p-quinone-3-methyl amine], which IC50 (p210^bcr-abl; Table 9, mean ± S.E.) is on record?
A: The IC50 was 2.35 ± 0.41 µM.

Q: What about the GI50 [1, 5] of the same compound?
A: Its GI50 is 21.9 µM.

Q: What about the “Tumor Cell Mean log TGI” value ([1]; Table 9) of the same compound?
A: The value was −4.34.

Q: And the IC50 (K562 cells; [6])?
A: The IC50 was 17.5 ± 0.1 µM.
